Measured values taken from patent US8796286B2, “Agent for treatment of liver diseases containing pyrazolopyrimidinone derivative” (Mezzion Pharma Co., Ltd., priority 2005, dated 2014).
Like-named read-outs stand apart in the source and are kept apart here.

Assays:
[1] = In vivo pharmacokinetics in portal hypertension patients (plasma HPLC); conditions: human
Protocol: Nine volunteers among portal hypertension patients who were in the criterion of age from 19-45 and weight over 45 kg (within 15% deviation of ideal body weight) participated in experiments. They were all volunteers who agreed in writing to join the experiments and were trustworthy, cooperative and willing to follow the rules.
A double blind method was used for the experiments. At 8-9 am on the test day, test medicines were given with 240 mL of water to volunteers. For 4 hours from the administration, they were fasted, and lunch was provided 4 hours later and dinner was provided 9 hours later. Blood samples were taken before the administration on the test day and at the 0.5th, 1st, 1.5th, 2nd, 2.5th, 3rd, 4th, 5th, 6th, 8th, 12th, 24th and 32nd hour after the administration. Blood plasma was isolated, followed by HPLC. 100 μL of 0.1 M sodium carbonate and 1.0 mL of ethyl ether were added to 0.5 mL of blood plasma, then mixed well for 1 minute, followed by centrifugation at 12,000 rpm for 3 minutes. Supernatant was obtained and organic solvent was volatilized using speed vac. Then, 100 μL of moving phase was added, followed by stirring.

[2] = tested on: portal hypertension model; experiment: Portal hypertension animal model (bile duct ligation): portal blood pressure, portal vein diameter, blood flow; assay type: in vivo, beagle dog; conditions: 10 mg/kg/day oral for two weeks; for Portal vein diameter / Blood flow rate (portal vein) / Portal blood pressure: bile duct ligated beagle dogs, mean ± standard deviation; for Portal vein diameter: Doppler ultrasonography
Protocol: The following experiments were performed to investigate the effect of pyrazolopyrimidinone derivative on portal hypertension. 12 beagle dogs weighing about 10 kg were divided into four groups (3 dogs were chosen per group randomly), and bile duct ligation was performed on them. […] The animals were fasted for 4 hours, then pentobarbital was intravenously injected to anesthetize them. A tube was inserted through the mesenteric vein to the portal vein to measure portal blood pressure. Doppler ultrasonography was also performed to measure the diameter of portal vein. Blood flow through the portal vein was measured by using the following mathematical chemistry FIG. 1, and the result is shown in Table 2. [formula]

[3] = tested on: collagen synthesis in hepatic stellate cells; experiment: Inhibitory effect on collagen synthesis using hepatic stellate cells (RT-PCR for collagen); assay type: cell-based, Sprague Dawley rat; conditions: for IC50: Rattus norvegicus, hepatic stellate cells pre-treated with 25 ng/mL PDGF for 24 hours, collagen RT-PCR relative to beta-actin, mean ± standard deviation
Protocol: The following experiments were performed to investigate the inhibition effect of pyrazolopyrimidinone derivative of the present invention on collagen synthesis. Hepatic stellate cells were isolated from Sprague Dawley white male rats (about 300 g in weight, n=10). First, ketamin was injected into the abdominal cavity to anesthetize the rats. The abdomen was opened and heparin was injected into the portal vein. Then, Hank's buffer solution containing 0.02% pronase and 0.015% collagenase was perfused through the liver for a required time to prepare liver in sections. The extracted liver was crushed on a sterilized petri-dish, then put in a buffer solution containing pronase and DNase, and the crushed liver was then homogenized on a sterilized petri-dish. The prepared sample was filtered with 100 μm nylon mesh in a 50 mL tube. Centrifugation was performed with 50 g for 2 minutes to separate nonparenchymal cells in supernatant. Centrifugation was performed again with 450 g at 4° C. for 10 minutes. The precipitate was floated in a buffer solution containing 25 μg/mL of DNase, followed by centrifugation with 450 g at 4° C. for 10 minutes, which was repeated twice. The final precipitate was floated in 21 mL of buffer solution, which was then mixed with 17 mL of 25% OptiPrep to prepare the final solution of 11.2% OptiPrep (1.058 cm^3). Cell suspension solution mixed with OptiPrep was carefully distributed into four 15 mL tubes containing 3 mL of 17% OptiPrep, to which 1 mL of buffer solution was added. Centrifugation was performed with 1400 g at 4° C. for 17 minutes, and as a result, pure hepatic stellate cells were obtained from the opaque layer between the buffer solution and […]. The separated hepatic stellate cells were suspended in DMEM (Dulbecco's Modified Eagle' Media), followed by washing. The cells were suspended again in DMEM supplemented with 10% FBS (Fetal Bovine Serum) and antibiotics, then inoculated into a culture vessel, which was cultured in a 37° C. 5% CO2 incubator. The culture medium was first replaced 24 hours later, and then replaced every 48 hours for sub-culture. Hepatic stellate cells sub-cultured 8 times were grouped by 2×10^5, which were pre-treated with 25 ng/mL of PDGF (Platelet Derived Growth Factor) for 24 hours. […] The total RNA was extracted and RT-PCR (Reverse Transcriptase Polymerase Chain Reaction) for collagen was performed. Based on the relative concentration to beta-actin, a target material was compared with other test samples. In order to determine the inhibitory effect of a target sample on collagen synthesis, inhibitory concentration 50% (IC50) was investigated, and the result is shown in Table 1.

[4] = tested on: collagen synthesis in liver, hepatic fibrosis model; experiment: Liver protective effect in DMN-induced hepatic fibrosis animal model (collagen type I/III immunohistological staining); assay type: in vivo, Sprague Dawley rat; conditions: 10 mg/kg/day oral for 2 weeks; for collagen synthesis in hepatic portal veins and around the portal veins (immunohistology): DMN 10 mg/kg i.p. three times per week for 2 weeks, versus solvent control
Protocol: The following experiments were performed to investigate the in vivo collagen synthesis inhibitory effect of pyrazolopyrimidinone derivative of the present invention. Sprague Dawley white female rats (having approximately 300 g in weight) were divided into 4 groups (5 rats per group), and hepatic fibrosis was induced in experimental groups except the wild type control group (Toxicology, 2001). DMN (dimethylnitrosamine) was injected into the abdominal cavity in a dose of 10 mg/kg serially for 2 weeks with a dose frequency of three times per week. […] Only triazole buffer was administered to the solvent control group. Two weeks later, the liver was extracted, fixed in 10% neutral formalin, embedded in paraffin and sliced by […]. Each section was treated with xylene to eliminate paraffin, followed by treatment with alcohol and 0.1% hydrogen peroxide (H2O2). After treatment with PBS, the sections were treated with polyclonal antiserum (Chemicon) against collagen type I diluted by 1:500 and polyclonal antiserum (BioGenesis) against collagen type III diluted by 1:100, at 37° C. for one hour. After washing, samples were treated with 1:200 diluted biotin-conjugated goat anti-rabbit IgG. Immunohistological staining was performed by reacting the samples with avidin-biotin complex (Vector Laboratories), then antigen-antibody complex was marked with 3-amino-9-ethylcarbazole (AEC), whose image was taken by optical microscope now shown in FIG. 1-4. The control group was treated with non-immunized horse serum instead of primary antibody.

[5] = Solubility (physicochemical properties)
[6] = pKa (physicochemical properties)
[7] = tested on: experimental cirrhosis models; conditions: dose-dependently; cited from earlier work

| Compound | blood flow rate through portal vein increase compared with solvent treated group [2] | portal blood pressure decrease compared with solvent treated control group [2] | Portal vein diameter [2] | Blood flow rate (portal vein) [2] | Portal blood pressure [2] | IC50 [3] | collagen synthesis in hepatic portal veins and around the portal veins (immunohistology) [4] | other results |
| --- | --- | --- | --- | --- | --- | --- | --- | --- |
| CCCc1nc(C)c2c(=O)[nH]c(-c3cc(S(=O)(=O)N4CCN(CC)CC4)ccc3OCC)nn12 [Vardenafil, vardenafil] | 24.8% | 9% | 7.43 ± 0.21 mm | 729.29 ± 83.23 mL/min | 2.87 ± 0.25 kPa | 7.8 ± 1.7 nM | – | half-life ([1]; plasma, patients with portal hypertension, 10 mg oral, mean ± standard deviation, read-out: Half-life (converted)): 6.3 ± 2.1 h |
| CCCOc1ccc(S(=O)(=O)NCCC2CCCN2C)cc1-c1nc2c(CCC)nn(C)c2c(=O)[nH]1 (stereo not shown) [Pyrazolopyrimidinone derivative, 5-[2-propyloxy-5-(1-methyl-2-pyrrolidinylethyl amidosulfonyl)phenyl]-1-methyl-3-propyl-1,6-dihydro-7H-pyrazolo(4,3-d)pyrimidin-7-one] | 59.9% | 21% | 7.70 ± 0.26 mm | 932.31 ± 89.83 mL/min | 2.50 ± 0.20 kPa | 0.8 ± 0.2 nM | remarkably inhibited | inhibition of collagen synthesis compared with the sildenafil treated group ([4]; DMN rats): greater than that in the sildenafil treated group; solubility in acetic acid, methanol and chloroform ([5]; acetic acid, methanol and chloroform): soluble; solubility in water ([5]; water): insoluble; half-life, fold longer than vardenafil ([1]; in vivo): two fold; half-life ([1]; in vivo, po, 100 mg): 15.1 ± 3.5 h; pKa1 [6]: 6.5; pKa2 [6]: 12.5; collagen synthesis inhibitory effect, times higher than sildenafil ([3]; ratio of IC50 versus sildenafil): 16 times; collagen synthesis inhibitory effect, times higher than vardenafil ([3]; ratio of IC50 versus vardenafil): 10 times; collagen synthesis inhibitory effect, times as excellent as other conventional PDE 5 inhibitors ([3]; versus other conventional PDE 5 inhibitors (Table 1)): 10-16 times |
| CCCc1nn(C)c2c(=O)[nH]c(-c3cc(S(=O)(=O)N4CCN(C)CC4)ccc3OCC)nc12 [Sildenafil, sildenafil] | 29.1% | 7% | 7.47 ± 0.21 mm | 754.47 ± 80.24 mL/min | 2.93 ± 0.25 kPa | 13.1 ± 2.3 nM | remarkably inhibited | Portal blood pressure [7]: increases; blood flow through mesenteria [7]: increases; half-life ([1]; plasma, patients with portal hypertension, 50 mg oral, mean ± standard deviation, read-out: Half-life (converted)): 4.5 ± 1.2 h |
